Columns and labels:
[1] = system: T. cruzi SN3 strain amastigotes; test: Screening against intracellular amastigotes in Vero cells, SN3 strain (Giemsa counting); format: cell-based, Trypanosoma cruzi
Description: (§1) TINF/CH/1956/Tulahuen, DTU VI [26]—were grown at 28 °C in Gibco® RPMI 1640 Medium supplemented as previously reported, and used for in vitro screening. Trypanocidal activity against amastigotes was tested as previously reported. In brief, bloodstream trypomastigotes (BTs), obtained by cardiac puncture from infected BALB/c mice, were used to infect 1 × 10^4 Vero cells·well^−1 in 24-well plates with rounded coverslips at a multiplicity of infection (MOI) ratio of 10:1. After 24 h of infection, non-internalized trypomastigotes were washed and the infected cells were treated by adding the compounds in serial dilutions from 50 to 0.5 µM in […] for 72 h. BZN and untreated growth controls were also included in triplicate. Later, the number of amastigotes and infected cells were determined in Giemsa stained preparations by analysing 500 host cells randomly distributed in microscopic fields. The trypanocidal activity was expressed as the IC50 using GraphPad Prism 6 software (version 6.07).

Vero cells = test: Cytotoxicity test on mammalian Vero cells (resazurin); format: cell-based; details: Chlorocebus sabaeus, 48 h treatment + 24 h resazurin, mean of three ± SD, read-out: Toxicity IC50 Vero Cell
Description: Cytotoxicity against mammalian Vero cells (EACC No. 84113001) was tested as previously reported. In brief, 1.25 × 10^4 Vero cells·mL^−1, cultured at 37 °C, were treated by adding the compounds in serial dilutions from 400 to 1 µM in 96-well plates (200 µL·well^−1) for 48 h. BZN and untreated controls were also included in triplicate. Later, 20 μL of resazurin sodium salt (Sigma-Aldrich) was added, and the plates were incubated for another 24 h. Finally, cell viability was determined following the same procedure as described to assess the trypanocidal activity in the epimastigotes.

[2] = system: T. cruzi Tulahuen strain epimastigotes; test: Screening against extracellular epimastigotes, Tulahuen strain (resazurin); format: cell-based, Trypanosoma cruzi
Description: Three different T. cruzi […] strains—MHOM/Pe/2011/Arequipa, discrete typing unit (DTU) V [26]; IRHOD/CO/2008/SN3, DTU I [27]; TINF/CH/1956/Tulahuen, DTU VI [26]—were grown at 28 °C in Gibco® RPMI 1640 Medium supplemented as previously reported, and used for in vitro screening.
Trypanocidal activity against epimastigotes was tested as previously reported. In brief, 5 × 10^5 mL^−1 epimastigotes culture medium were treated by adding the compounds in serial dilutions from 100 to 0.2 µM in 96-well plates (200 µL·well^−1) for 48 h. BZN and untreated growth control were also included in triplicate. Later, 20 μL of resazurin sodium salt (Sigma-Aldrich, St. Louis, MO, USA) was added, and the plates were incubated for another 24 h. Finally, the absorbance of the wells was measured at 570/600 nm and related to the control. The trypanocidal activity was expressed as the IC50 (inhibitory concentration 50) value using GraphPad Prism 6 software.

[3] = Clinical analysis of heart, kidney and liver markers in serum of treated mice; format: in vivo, BALB/c mice; details: n = 3
Description: Infection was carried out by intraperitoneal inoculation of 5 × 10^5 BTs of T. cruzi Arequipa strain per mouse in 0.2 mL PBS [26]. The infection was monitored and on the 10th day post-infection (dpi), when BTs were visible in the bloodstream, the infection was confirmed.
Mice were divided into four groups (n = 3 per group): 0, negative control group (uninfected and untreated mice); I, positive control group (infected and untreated mice); II, BZN group (mice infected and treated with BZN); III, 15 group (mice infected and treated with 15).
The treatment for mice treated in the acute and chronic CD began when the infection was confirmed (10th dpi) and was stablished that the animals had entered the chronic CD (75th dpi), respectively (Scheme 1). Compound 15 and BZN were orally administered for 5 consecutive days at a dose of 20 mg·Kg^−1·day^−1.
Blood samples were collected in several dpi (Scheme 1) and processed according the method previously reported to obtain serum. Serum samples were then aliquoted to ELISA test and clinical analysis.
Heart, kidney and liver markers were measured from blood in several dpi (Scheme 1) with Cromakit® as previously reported. Mean and standard deviations were calculated using the levels measured for different populations of sera (n = 15, n = 3), and the confidence interval were also calculated based on a confidence level of 95% (100 × (1 − α) = 100 × (1 − 0.05)).

[4] = system: T. cruzi Tulahuen strain amastigotes; test: Screening against intracellular amastigotes in Vero cells, Tulahuen strain (Giemsa counting); format: cell-based, Trypanosoma cruzi
Description: as §1

[5] = system: T. cruzi Arequipa strain amastigotes; test: Screening against intracellular amastigotes in Vero cells, Arequipa strain (Giemsa counting); format: cell-based, Trypanosoma cruzi
Description: as §1

[6] = system: Trypanosoma cruzi epimastigotes; test: Excreted metabolites by 1H NMR; format: cell-based; details: epimastigotes at IC25 concentration, 72 h; succinate and pyruvate most increased
Description: 5 × 10^5 mL^−1 epimastigotes culture medium were treated by adding the compounds at IC25 concentrations in 25 cm^2 cell culture flasks for 72 h. Untreated controls were also included in triplicate. Cultures were then centrifuged and filtered, and the metabolites of the supernatants were measured by ^1H NMR (VARIAN DIRECT DRIVE 500 MHz […]) with AutoX probe, D2O as solvent and 2,2-dimethyl-2-silapentane-5-sulphonate as the reference signal. Analyses were conducted as previously reported.

[7] = system: T. cruzi SN3 strain trypomastigotes; test: Screening against bloodstream trypomastigotes, SN3 strain (resazurin); format: cell-based, Trypanosoma cruzi
[8] = system: T. cruzi Arequipa strain trypomastigotes; test: Screening against bloodstream trypomastigotes, Arequipa strain (resazurin); format: cell-based, Trypanosoma cruzi
[9] = IC50 Vero cells/IC50 amastigotes
[10] = Trypanosoma cruzi, amastigotes in Vero cells, 72 h, mean of three ± SD
[11] = treatment in acute phase, 16th dpi (2 days after treatment)
[12] = treatment in acute phase, necropsy day
[13] = treatment in chronic phase, 81th dpi (2 days after treatment)
[14] = treatment in chronic phase, necropsy day
[15] = IC50 Vero cells/IC50 trypomastigotes
[16] = Trypanosoma cruzi, trypomastigotes, 24 h + 4 h resazurin, mean of three ± SD

Compound: c1cc2nc(c1)CNCCN(CCNCc1ccc3ccc4ccc(CNCCN5CCNCc6cccc(n6)CNCC5)nc4c3n1)CCNC2 [Compound 15]
- Selectivity Index T. cruzi SN3 Strain A [1, 9]: 58.0
- IC50 [1, 10]: 11.3 ± 0.9 µM
- CC50 (Vero cells): 655 ± 51.9 µM
- Selectivity Index T. cruzi Tulahuen Strain E ([2]; IC50 Vero cells/IC50 epimastigotes): 57.4
- IC50 ([2]; Trypanosoma cruzi, TULAHUEN, epimastigotes, 48 h treatment + 24 h resazurin, mean of three ± SD, read-out: Activity IC50 T. cruzi Tulahuen Strain E): 11.4 ± 1.1 µM
- ALP, variation over the range [3, 11]: = (variation ≤ 10%)
- ALT/GPT, variation over the range [3, 11]: ++ (20-30% increase/decrease over the range)
- AST/GOT, variation over the range [3, 11]: ++ (20-30% increase/decrease over the range)
- CK-MB, variation over the range [3, 11]: -- (20-30% increase/decrease over the range)
- LDH, variation over the range [3, 11]: = (variation ≤ 10%)
- Total bilirubin, variation over the range [3, 11]: + (10-20% increase/decrease over the range)
- Urea, variation over the range [3, 11]: - (10-20% increase/decrease over the range)
- Uric acid, variation over the range [3, 11]: -- (20-30% increase/decrease over the range)
- ALP, variation over the range [3, 12]: = (variation ≤ 10%)
- ALT/GPT, variation over the range [3, 12]: + (10-20% increase/decrease over the range)
- AST/GOT, variation over the range [3, 12]: + (10-20% increase/decrease over the range)
- CK-MB, variation over the range [3, 12]: = (variation ≤ 10%)
- LDH, variation over the range [3, 12]: = (variation ≤ 10%)
- Total bilirubin, variation over the range [3, 12]: + (10-20% increase/decrease over the range)
- Urea, variation over the range [3, 12]: = (variation ≤ 10%)
- Uric acid, variation over the range [3, 12]: = (variation ≤ 10%)
- ALP, variation over the range [3, 13]: = (variation ≤ 10%)
- ALT/GPT, variation over the range [3, 13]: + (10-20% increase/decrease over the range)
- AST/GOT, variation over the range [3, 13]: + (10-20% increase/decrease over the range)
- CK-MB, variation over the range [3, 13]: - (10-20% increase/decrease over the range)
- LDH, variation over the range [3, 13]: = (variation ≤ 10%)
- Total bilirubin, variation over the range [3, 13]: ++ (20-30% increase/decrease over the range)
- Urea, variation over the range [3, 13]: -- (20-30% increase/decrease over the range)
- Uric acid, variation over the range [3, 13]: --- (30-40% increase/decrease over the range)
- ALP, variation over the range [3, 14]: = (variation ≤ 10%)
- ALT/GPT, variation over the range [3, 14]: = (variation ≤ 10%)
- AST/GOT, variation over the range [3, 14]: = (variation ≤ 10%)
- CK-MB, variation over the range [3, 14]: = (variation ≤ 10%)
- LDH, variation over the range [3, 14]: = (variation ≤ 10%)
- Total bilirubin, variation over the range [3, 14]: + (10-20% increase/decrease over the range)
- Urea, variation over the range [3, 14]: - (10-20% increase/decrease over the range)
- Uric acid, variation over the range [3, 14]: - (10-20% increase/decrease over the range)
- Selectivity Index T. cruzi Tulahuen Strain A [4, 9]: 96.3
- IC50 ([4]; Trypanosoma cruzi, TULAHUEN, amastigotes in Vero cells, 72 h, mean of three ± SD): 6.8 ± 0.7 µM
- Selectivity Index T. cruzi Arequipa Strain A [5, 9]: 262.0
- IC50 [5, 10]: 2.5 ± 0.3 µM
- excretion of catabolites compared with untreated parasites [6]: notably increased
- Selectivity Index T. cruzi SN3 Strain T [7, 15]: 62.0
- IC50 [7, 16]: 10.6 ± 0.9 µM
- Selectivity Index T. cruzi Arequipa Strain T [8, 15]: 409.3
- IC50 [8, 16]: 1.6 ± 0.1 µM
